In ChEMBL document CHEMBL3885881, “DrugMatrix”:

Species: Rattus norvegicus
Assay: DrugMatrix - Regimen: Daily Repeat
Type: toxicity, organism-based, Sprague-Dawley
Design: regimen Daily Repeat, gender Male, age 6-8 weeks
Settings: in vivo, po, route oral GAVAGE, vehicle .5 % CMC; for ABSOLUTE BASOPHIL / ABSOLUTE EOSINOPHIL / ABSOLUTE LYMPHOCYTE / ABSOLUTE MONOCYTE / ABSOLUTE SEGMENTED NEUTROPHIL / BASOPHIL / EOSINOPHIL / ERYTHROCYTE COUNT / HEMATOCRIT / HEMOGLOBIN / LEUKOCYTE COUNT / LYMPHOCYTE / MEAN CORPUSCULAR HEMOGLOBIN / MEAN CORPUSCULAR HEMOGLOBIN CONCENTRATION / MONOCYTE / NEUTROPHIL / NUCLEATED RED BLOOD CELLS / PLATELET COUNT: tissue Blood; for ALANINE AMINOTRANSFERASE / ALBUMIN / ALKALINE PHOSPHATASE / ASPARTATE AMINOTRANSFERASE / BLOOD UREA NITROGEN / CARBON DIOXIDE / CHLORIDE / CHOLESTEROL / CREATINE PHOSPHOKINASE / CREATININE / GLUCOSE / LACTATE DEHYDROGENASE / LIPASE / PHOSPHORUS / POTASSIUM / SODIUM / TOTAL BILIRUBIN / TOTAL PROTEIN / URIC ACID: tissue Plasma
[1] = 0 mg/kg, 72 h, dose level Control, time 3 day
[2] = 0 mg/kg, 120 h, dose level Control, time 5 day
[3] = 10 mg/kg, 72 h, dose level Low, time 3 day

SMILES: O=C1C(CC[S+]([O-])c2ccccc2)C(=O)N(c2ccccc2)N1c1ccccc1 (stereo not given) [SULFINPYRAZONE]
- ABSOLUTE BASOPHIL [1]: 0 CELLS/uL
- ABSOLUTE EOSINOPHIL [1]: 171.33 CELLS/uL
- ABSOLUTE LYMPHOCYTE [1]: 13776.5 CELLS/uL
- ABSOLUTE MONOCYTE [1]: 180.83 CELLS/uL
- ABSOLUTE SEGMENTED NEUTROPHIL [1]: 1121.33 CELLS/uL
- BASOPHIL [1]: 0%
- EOSINOPHIL [1]: 1%
- ERYTHROCYTE COUNT [1]: 5.56 x10E6/uL
- HEMATOCRIT [1]: 34.75%
- HEMOGLOBIN [1]: 13.68 G/DL
- LEUKOCYTE COUNT [1]: 15.25 x10E3/uL
- LYMPHOCYTE [1]: 90.17%
- MEAN CORPUSCULAR HEMOGLOBIN [1]: 24.6 pg
- MEAN CORPUSCULAR HEMOGLOBIN CONCENTRATION [1]: 39.4 G/DL
- MONOCYTE [1]: 1.17%
- NEUTROPHIL [1]: 7.67%
- NUCLEATED RED BLOOD CELLS [1]: 0 /100WBC
- PLATELET COUNT [1]: 1342 x10E3/uL
- ALANINE AMINOTRANSFERASE [1]: 49.67 u/L
- ALBUMIN [1]: 4.15 G/DL
- ALKALINE PHOSPHATASE [1]: 346.83 u/L
- ASPARTATE AMINOTRANSFERASE [1]: 108.17 u/L
- BLOOD UREA NITROGEN [1]: 17.33 mg/dL
- CARBON DIOXIDE [1]: 25 mmol/L
- CHLORIDE [1]: 100.83 MEQ/L
- CHOLESTEROL [1]: 66.83 mg/dL
- CREATINE PHOSPHOKINASE [1]: 788 u/L
- CREATININE [1]: 0.18 mg/dL
- GLUCOSE [1]: 151.67 mg/dL
- LACTATE DEHYDROGENASE [1]: 982.5 u/L
- LIPASE [1]: 10.33 u/L
- PHOSPHORUS [1]: 11.23 mg/dL
- POTASSIUM [1]: 6.37 MEQ/L
- SODIUM [1]: 141.02 MEQ/L
- TOTAL BILIRUBIN [1]: 0.18 mg/dL
- TOTAL PROTEIN [1]: 5.9 G/DL
- URIC ACID [1]: 1.8 mg/dL
- ABSOLUTE BASOPHIL [2]: 0 CELLS/uL
- ABSOLUTE EOSINOPHIL [2]: 69 CELLS/uL
- ABSOLUTE LYMPHOCYTE [2]: 13632.83 CELLS/uL
- ABSOLUTE MONOCYTE [2]: 139.83 CELLS/uL
- ABSOLUTE SEGMENTED NEUTROPHIL [2]: 1225 CELLS/uL
- BASOPHIL [2]: 0%
- EOSINOPHIL [2]: 0.33%
- ERYTHROCYTE COUNT [2]: 5.52 x10E6/uL
- HEMATOCRIT [2]: 33.98%
- HEMOGLOBIN [2]: 13.22 G/DL
- LEUKOCYTE COUNT [2]: 15.07 x10E3/uL
- LYMPHOCYTE [2]: 90.83%
- MEAN CORPUSCULAR HEMOGLOBIN [2]: 23.95 pg
- MEAN CORPUSCULAR HEMOGLOBIN CONCENTRATION [2]: 38.9 G/DL
- MONOCYTE [2]: 0.83%
- NEUTROPHIL [2]: 8%
- NUCLEATED RED BLOOD CELLS [2]: 0 /100WBC
- PLATELET COUNT [2]: 1196 x10E3/uL
- ALANINE AMINOTRANSFERASE [2]: 49.17 u/L
- ALBUMIN [2]: 4.2 G/DL
- ALKALINE PHOSPHATASE [2]: 352.33 u/L
- ASPARTATE AMINOTRANSFERASE [2]: 89.67 u/L
- BLOOD UREA NITROGEN [2]: 18 mg/dL
- CARBON DIOXIDE [2]: 27.67 mmol/L
- CHLORIDE [2]: 101 MEQ/L
- CHOLESTEROL [2]: 72.83 mg/dL
- CREATINE PHOSPHOKINASE [2]: 417.5 u/L
- CREATININE [2]: 0.18 mg/dL
- GLUCOSE [2]: 150.5 mg/dL
- LACTATE DEHYDROGENASE [2]: 517.33 u/L
- LIPASE [2]: 9 u/L
- PHOSPHORUS [2]: 11.87 mg/dL
- POTASSIUM [2]: 6.57 MEQ/L
- SODIUM [2]: 143.62 MEQ/L
- TOTAL BILIRUBIN [2]: 0.2 mg/dL
- TOTAL PROTEIN [2]: 6.08 G/DL
- URIC ACID [2]: 1.45 mg/dL
- ABSOLUTE BASOPHIL [3]: 0 CELLS/uL
- ABSOLUTE EOSINOPHIL [3]: 153.67 CELLS/uL
- ABSOLUTE LYMPHOCYTE [3]: 13327.33 CELLS/uL
- ABSOLUTE MONOCYTE [3]: 157.33 CELLS/uL
- ABSOLUTE SEGMENTED NEUTROPHIL [3]: 995 CELLS/uL
- BASOPHIL [3]: 0%
- EOSINOPHIL [3]: 1%
- ERYTHROCYTE COUNT [3]: 5.31 x10E6/uL
- HEMATOCRIT [3]: 34.03%
- HEMOGLOBIN [3]: 13.67 G/DL
- LEUKOCYTE COUNT [3]: 14.63 x10E3/uL
- LYMPHOCYTE [3]: 91%
- MEAN CORPUSCULAR HEMOGLOBIN [3]: 25.73 pg
- MEAN CORPUSCULAR HEMOGLOBIN CONCENTRATION [3]: 40.17 G/DL
- MONOCYTE [3]: 1%
- NEUTROPHIL [3]: 7%
- NUCLEATED RED BLOOD CELLS [3]: 0 /100WBC
- PLATELET COUNT [3]: 1352.33 x10E3/uL
- ALANINE AMINOTRANSFERASE [3]: 52.33 u/L
- ALBUMIN [3]: 4.23 G/DL
- ALKALINE PHOSPHATASE [3]: 353.33 u/L
- ASPARTATE AMINOTRANSFERASE [3]: 105.67 u/L
- BLOOD UREA NITROGEN [3]: 15.33 mg/dL
- CARBON DIOXIDE [3]: 25.67 mmol/L
- CHLORIDE [3]: 100.33 MEQ/L
- CHOLESTEROL [3]: 80.33 mg/dL
- CREATINE PHOSPHOKINASE [3]: 490.67 u/L
- CREATININE [3]: 0.21 mg/dL
- GLUCOSE [3]: 150.33 mg/dL
- LACTATE DEHYDROGENASE [3]: 722 u/L
- LIPASE [3]: 10.33 u/L
- PHOSPHORUS [3]: 12.1 mg/dL
- POTASSIUM [3]: 6.22 MEQ/L
- SODIUM [3]: 143.2 MEQ/L
- TOTAL BILIRUBIN [3]: 0.2 mg/dL
- TOTAL PROTEIN [3]: 6.03 G/DL
